Results taken from article PMC4264242, “Androgen Receptor Antagonists and Anti-Prostate Cancer Activities of Some Newly Synthesized Substituted Fused Pyrazolo-, Triazolo- and Thiazolo-Pyrimidine Derivatives” (International Journal of Molecular Sciences, 2014).
Entries after “also recorded” stand apart in the source; their conditions may differ.

Tests used:
[1] = Acute toxicity (LD50) in rats; settings: rat, in vivo, rats injected with increasing doses
Method: The LD50 was determined by using rats injected with different increasing doses of the synthesized compounds. The dose that killed 50% of the animals was calculated according to Austen and Brocklehurst (Table 4).

human androgen receptor = target: T1, human androgen receptor (Homo sapiens, UniProt P10275); assay: In vitro androgen receptor antagonistic activity, DHT-induced MMTV-luciferase reporter assay in AR/CHO#3 cells; type: cell-based; settings: 0.3 nM DHT
T1 construct: expressed in transfected cells
T1 sequence (P10275 1-920): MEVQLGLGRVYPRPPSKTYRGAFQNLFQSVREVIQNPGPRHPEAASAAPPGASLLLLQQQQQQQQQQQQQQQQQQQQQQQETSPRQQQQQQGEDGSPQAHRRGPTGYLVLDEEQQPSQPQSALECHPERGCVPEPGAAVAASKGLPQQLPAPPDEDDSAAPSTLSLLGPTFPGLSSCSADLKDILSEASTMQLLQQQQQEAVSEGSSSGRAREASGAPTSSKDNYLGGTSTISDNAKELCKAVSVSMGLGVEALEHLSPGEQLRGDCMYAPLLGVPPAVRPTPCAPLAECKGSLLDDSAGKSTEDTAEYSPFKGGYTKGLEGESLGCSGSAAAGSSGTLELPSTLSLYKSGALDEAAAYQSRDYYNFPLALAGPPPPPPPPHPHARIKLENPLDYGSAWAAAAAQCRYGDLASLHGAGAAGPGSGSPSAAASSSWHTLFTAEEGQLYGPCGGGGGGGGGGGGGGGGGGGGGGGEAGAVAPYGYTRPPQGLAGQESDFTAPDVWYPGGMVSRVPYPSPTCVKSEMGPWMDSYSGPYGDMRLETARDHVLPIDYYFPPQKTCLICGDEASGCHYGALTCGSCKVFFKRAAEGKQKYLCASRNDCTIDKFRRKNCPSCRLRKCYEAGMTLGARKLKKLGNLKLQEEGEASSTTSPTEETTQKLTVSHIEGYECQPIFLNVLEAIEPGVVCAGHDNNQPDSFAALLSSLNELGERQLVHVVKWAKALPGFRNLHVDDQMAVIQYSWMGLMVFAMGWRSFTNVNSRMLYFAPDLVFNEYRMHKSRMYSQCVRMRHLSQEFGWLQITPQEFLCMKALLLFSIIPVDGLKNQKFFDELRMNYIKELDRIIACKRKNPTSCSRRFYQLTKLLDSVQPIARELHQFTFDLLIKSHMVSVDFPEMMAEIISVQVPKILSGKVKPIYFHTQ
Method: Chinese Hamster Ovary (CHO) Cells Stably Transfected with Human Androgen Receptor Gene and Mouse Mammary Tumor Virus (MMTV)-Luciferase Reporter Gene or SV40-Luciferase Gene: CHO cells were maintained in alpha-modified Eagle’s medium supplemented with 10% fetal bovine serum (FBS). The culture medium of neomycin-resistant clone cells was supplemented with 10% dextran-coated charcoal-stripped FBS (DCC-FBS) and […] of neomycin. The CHO cells were transfected at 40%–70% confluence in 10-cm petri dishes with a total of […] DNA (plasmide mammalian neow luciferase, (pMAMneoLUC)); Mouse mammary tumor virus (MMTV)-luciferase reporter plasmid and pSG5-hAR; human androgen receptor expression plasmid, or Simian vacuolating virus 40 (SV40-LUC); SV40-luciferase reporter plasmid containing neomycin resistant gene) by calcium phosphate mediated transfection. The stable transfected cells were selected in the culture medium supplemented with neomycin. The selected clone was designated as AR/CHO#3 (human AR gene and MMTV luciferase reporter gene integrated CHO cell) or SV/CHO#10 (SV-40-luciferase reporter gene integrated CHO cell), respectively.
The stable transfected AR/CHO#3 or SV/CHO#10 cells were plated onto 96-well luminoplates (Packard, Palo Alto, CA, USA) at a density of 2 × 10^4 cells/well, respectively.
Four to eight hours later, the medium was changed to a medium containing DMSO, 0.3 nM of DHT, or 0.3 nM of DHT, and the tested compound. At the end of incubation, the medium was removed and the cells were lysed with […] of lysis buffer (25 mM Tris–HCl (pH 7.8), 2 mM dithiothreitol, 2 mM 1,2-cyclo-hexanediamine-tetraacetic acid, 10% glycerol and 1% Triton X-100). Luciferase substrate (20 mM Tris–HCl (pH 7.8), 1.07 mM magnesium carbonate basic (MgCO3)4Mg(OH)2·5H2O, 2.67 mM MgSO4·7H2O, 0.1 mM ethylenediaminetetraacetic acid (EDTA), 33.3 mM dithiothreitol, 0.27 mM CoA, 0.47 mM luciferin, 0.53 mM ATP) was added, and luciferase activity was measured with a ML3000 luminometer (Dynatech Laboratories, El Paso, TX, UAS). AR antagonistic activities were calculated by the formula below: AR antagonistic activity (%) = 100 (I − X) / (I − B) (1) I: (luciferase activity of AR/CHO#3)/(luciferase activity of SV/CHO#10) in the presence of 0.3 nM of DHT, B: (luciferase activity of AR/CHO#3)/(luciferase activity of SV/CHO#10) in the presence of DMSO, X: (luciferase activity of AR/CHO#3)/(luciferase activity of SV/CHO#10) in the presence of 0.3 nM of DHT and the tested compound.
The concentration of compounds showing 50% AR antagonistic activity, or IC50 values, was obtained by nonlinear analysis using a statistical analysis system (SAS).

[2] = AR/CHO#3 cells normalised to SV/CHO#10
[3] = other: injected (kind of injection not stated)

| SMILES | LD50 ([1]; other: injected) | IC50, in vitro androgen receptor antagonistic activity (human androgen receptor; [2]) | IC50, in vitro androgen receptor antagonistic activity (human androgen receptor; AR/CHO#3 cells normalised to SV/CHO#10, listed as compound 1) | IC50 (human androgen receptor; [2]) | LD50 [1, 3] |
| --- | --- | --- | --- | --- | --- |
| NNc1nc2c(ccc3ccccc32)s1 [Compound 1, 1-(naphtho[1,2-d]thiazol-2-yl)hydrazine] | 1160 mg/kg | Inactive | devoid from any activities; also recorded: devoid of any activity | – | – |
| N#Cc1cnn(-c2nc3c(ccc4ccccc43)s2)c1N [Compound 2, 2-[3-Amino-4-cyanopyrazol-2-yl]naphthalino[1,2-d]thiazole] | 163 mg/kg | – | – | 31 nM | – |
| Nc1ncnc2c1cnn2-c1nc2c(ccc3ccccc32)s1 [Compound 3] | – | – | – | 37 nM | 175 mg/kg |
| Nc1n[nH]c2c1cnn2-c1nc2c(ccc3ccccc32)s1 [Compound 4] | – | – | – | 34 nM | 266 mg/kg |
| Nc1nc(=S)[nH]c2c1cnn2-c1nc2c(ccc3ccccc32)s1 [Compound 5, 2-[6-Amino-3H-4-thiopyrimidino[4,5-c]pyrazol-2-yl]naphthalino[1,2-d]thiazole] | 267 mg/kg | – | – | 41 nM | – |
| N=c1sc(=S)[nH]c2c1cnn2-c1nc2c(ccc3ccccc32)s1 [Compound 6, 2-[6-Imino-3H-4-thiothiazino[4,5-c]pyrazol-2-yl]naphthalino[1,2-d]thiazole] | 258 mg/kg | – | – | 44 nM | – |
| CCO/C=N\c1c(C#N)cnn1-c1nc2c(ccc3ccccc32)s1 [Compound 8, 2-[3-Ethylimidoformat-4-cyanopyrazol-2-yl]naphthalino[1,2-d]thiazole] | 236 mg/kg | – | – | 77 nM | – |
| N#Cc1cnn(-c2nc3c(ccc4ccccc43)s2)c1/N=C\NN [Compound 9, 2-[3-Imidoformic hydrazido-4-cyanopyrazol-2-yl]naphthalino[1,2-d]thiazole] | 125 mg/kg | – | – | 75 nM | – |
| Cc1nc2c3cnn(-c4nc5c(ccc6ccccc65)s4)c3ncn2n1 [Compound 10, 2-[6-Methyl[1,2,4]triazolo[2,3-c]pyrimidino[6,5-c]pyrazol-2-yl]naphthalino[1,2-d]thiazole] | 316 mg/kg | – | – | 23 nM | – |
| N=c1c2cnn(-c3nc4c(ccc5ccccc54)s3)c2ncn1NC(=O)c1ccccc1 [Compound 11] | – | – | – | 39 nM | 325 mg/kg |
| CCOC1SCC(=O)N1c1c(C#N)cnn1-c1nc2c(ccc3ccccc32)s1 (stereo not shown) [Compound 12, 2-[3-(2-Ethoxy-4-oxo-5-dihydro-1,3-thiazol-3-yl)-4-cyanopyrazol-2-yl]-naphthalino[1,2-d]thiazole] | 234 mg/kg | – | – | 91 nM | – |
| CCOC1SCC2NC(=O)c3cnn(-c4nc5c(ccc6ccccc65)s4)c3N21 (stereo not shown) [Compound 13, 2-[3-Ethoxy-5-dihydro-6H-7-oxo-[1,3]thiazolo[3,4-b]pyrimidino[4,5-c]pyrazol-2-yl]naphthalino[1,2-d]thiazole] | 443 mg/kg | – | – | 29 nM | – |
